# Test results from PubChem BioAssay (NCI).
#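 A five-concentration, 48-hour dose response in 96-well plates underlies each endpoint, interpolated linearly between surrounding concentrations. GI50 is the concentration that inhibits growth by half. TGI marks complete inhibition of growth.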
# Tests used:
# Test in all cases: inhibition of tumour cell growth, NCI panel, 48 h
# UACC-257 melanoma = test system: UACC-257 melanoma
# HCT-116 colon = test system: HCT-116 colon
# NCI-H23 lung = test system: NCI-H23 lung
# M14 melanoma = test system: M14 melanoma
# UO-31 renal = test system: UO-31 renal
# SNB-19 CNS = test system: SNB-19 CNS
# HS 578T breast = test system: HS 578T breast
# K-562 leukemia = test system: K-562 leukemia
# SK-MEL-28 melanoma = test system: SK-MEL-28 melanoma
# SN12C renal = test system: SN12C renal
Structure (SMILES),GI50 (UACC-257 melanoma) [µM],TGI (UACC-257 melanoma) [µM],GI50 (HCT-116 colon) [µM],TGI (HCT-116 colon) [µM],GI50 (NCI-H23 lung) [µM],TGI (NCI-H23 lung) [µM],GI50 (M14 melanoma) [µM],TGI (M14 melanoma) [µM],GI50 (UO-31 renal) [µM],TGI (UO-31 renal) [µM],GI50 (SNB-19 CNS) [µM],TGI (SNB-19 CNS) [µM],GI50 (HS 578T breast) [µM],TGI (HS 578T breast) [µM],GI50 (K-562 leukemia) [µM],TGI (K-562 leukemia) [µM],GI50 (SK-MEL-28 melanoma) [µM],TGI (SK-MEL-28 melanoma) [µM],GI50 (SN12C renal) [µM],TGI (SN12C renal) [µM]
C=CC(=O)N1CCCC(n2nc(-c3ccc(Oc4ccccc4)cc3)c3c(N)ncnc32)C1 (stereo unspecified),6.82,20.5,11.9,26.2,12.1,28.7,7.59,21.4,1.4,13.5,9.14,22.3,7.66,45.7,4.13,24.4,12.3,25,2.3,16.1
Clc1nc(Oc2ccccc2)nc(-c2cn(-c3ccccc3)c3ccccc23)n1,9.2,25,3.64,11.8,7.31,22.4,5.32,17.1,3.04,7.95,19,35.8,4.66,18.7,0.4,18.1,3.92,12.1,6.18,20.1
CCCCCCNC(=O)C1=C(C)NC(C)=C(C(=O)NCCCCCC)C1,,> 100,,> 100,,> 100,,> 100,,> 100,,> 100,,> 100,,> 100,,> 100,,> 100
COc1cc(OC)c(/C=C/c2ccc3ccccc3[n+]2C)c(OC)c1,0.49,3.19,0.392,11.7,0.686,12.2,1.22,5.01,6.14,54,0.375,14.8,0.638,19.3,0.271,20.9,0.891,3.62,0.36,16.9
Oc1ccc(N=Nc2ccc(Cl)cc2)cc1,,31.5,,29.4,,32.3,,23.3,,27.7,,34.3,,73.3,,55.7,,54.1,,31.2
CC(C)c1ccc(Cc2cnc(NC(=O)c3cc(Br)cs3)s2)cc1,7.6,> 100,2.98,> 100,3.45,> 100,2.44,> 100,3.8,> 100,5.02,> 100,2.48,58.2,0.436,> 100,5.41,> 100,4.21,> 100
COC(=O)CCC/C=C\C[C@H]1C=CC(=O)/C1=C/C[C@@H](O)CCc1cccc(C(F)(F)F)c1,2.48,7.49,1.78,4,2.03,5.18,2.1,6.07,1.73,3.29,4.04,16.6,12.2,50,2.23,7.98,1.98,5.2,4.2,16.9
S=C(Nc1ccc(-c2nc3ccccc3[nH]2)cc1)NC1CCCCC1,26.6,57.1,20.7,39.5,23.2,68.3,22.6,53.3,21.3,71.6,46.6,,26.1,,31.5,,30.6,,25,55
COc1ccc2c(c1)C(=O)CC(N)C2 (stereo unspecified),,> 100,,> 100,,> 100,,> 100,,> 100,,> 100,,> 100,,> 100,,> 100,,> 100
